The assay relates to wild type (WT) cells. As to the kind of experiment: C43-4 mutant peptides, spot dilution under temperature and UV stress, WT cells. It counts as cell-based, yeast. Particulars: low level expression on glucose. As for the experimental part: The cells were exposed to 5 sec of UV from a UV box prior to incubation. The plus signs define growth compared to the empty vector control.
Residues 2, 7, 8, 10, 12 and 14 of peptide C43-4 are conserved with Htz1. All of these residues were mutated to alanine (FIG. 10). Peptides that contained mutations designed to determine which amino acids were required for function were generated. These mutant peptides were grown in wild type cells and in cells that had APC10 mutated, under temperature and UV stress conditions (FIGS. 10-12).
These cells were spot diluted on Trp^− plates and grown at the temperatures shown and/or exposed to ultraviolet (UV) irradiation (FIGS. 10-12). At low level expression on glucose, some of the mutations caused stress dependent phenotypes.
• 1. Cells were cultured overnight in Trp^− 2% glucose media • 2. The growth of the cells was determined by measuring the optical density (OD) of the cells at 600 nm (OD600) • 3. Cells were diluted to OD600 of 1 with fresh culture media • 4. 100 ul of each culture was pipetted into a well of a 96 well plate • 5. 10 ul of the each starting culture was pipetted into 90 ul of water in 4 additional wells to make a 10-fold serial spot dilution • 6. 5 ul from each serial dilution was spotted onto plates containing standard growth media with either 2% glucose or 2% galactose using a multi-pipettor • 7. The plates were exposed to UV • 8. […]

The record followed here is patent publication US11851459B2, “Methods and uses of modulators of anaphase promoting complex (APC) activity for treating cancer” (University of Saskatchewan, priority 2018, dated 2023).

With NGSSHNDLRVRRLTLISRLC [C43-4], the “stress resistance (growth compared to empty vector)” value is listed as “increased stress resistance”.
